Reference: patent publication US8980887B2, “2-aryl imidazo[1,2-a]pyridine-3-acetamide derivatives, preparation methods and uses thereof” (Institute of Pharmacology, priority 2010, dated 2015)

Experiments:
[1] = target: TSPO protein separated and purified from rat heart (Rattus norvegicus (Rat), UniProt P16257); experiment: TSPO and radioligand (3H-PK11195) competitive binding test; conditions: for Inhibition rate (%): n = 6 times; for IC50 / Ki: 9 gradient concentrations, plotting and fitting
Protocol: In the present test, TSPO protein separated and purified from rat heart was used as screening target, via competitive binding test with radioligand (^3H-PK11195), to screen TSPO ligand compounds.
Wister rats, 220-260 g, female and male, were sacrificed by decapitation and the rat heart were rapidly separated, weighed and to which homogenized in 10 times volume of Tris-HCl buffer solution (50 mM Tris-HCl, 5 mM MgCl2, 1 mM EDTA, 0.5% (W/V) BSA, 1 mM PMSF, 3 μg/ml proteinase inhibitor, 0.1% NaN3, 0.32M sucrose, pH 7.4) at 15,000 rpm for 30 s, total 5 times. The homogenate was centrifuged under 1000×g for 10 minutes and the supernatant was then centrifuged under 30000×g for 20 minutes. The precipitate was collected, and resuspended with 10 times volume of Tris-HCl buffer solution (pH 7.4) relative to the original weight, then centrifuged under 30000×g for 20 minutes. The precipitate was washed with the same buffer solution, centrifuged under 30000×g for 20 minutes and the precipitate was suspended with the above buffer solution. After sub-packaged (the whole operation procedures were performed under ice bath), the product was stored at −80° C.
3) Competitive Binding Test of Drug to the Receptor (Rat Heart TSPO) and Radioligand (^3H-PK11195):
(1) tubes were placed in reaction condition of 30° C.
(2) all tubes were added with 20 μg of receptor protein in order;
(3) the test tubes were added in order with 20 μL of drugs in certain concentrations;
(4) the non-specific binding tubes were added with 20 μL of non-tagged ligand (PK11195), the final concentration of the non-tagged ligand was 0.1 mM, pre-reacted for 30 min;
(5) all tubes were added in order with 25 μL ^3H-PK11195, the final concentration of the labeled ligand was 1.5 nM;
(6) Tris-HCl Buffer pH7.4 was used to complement the reaction volumes of all tubes to reach 200 μL;
(7) the reaction was performed under 30° C. reaction condition for 1 h;
(8) Then samples were applied to 49-type glass fibre filter, vacuum suction filtered, then washed with 2 ml ice-cold Tris-HCl buffer solution (50 mM Tris-HCl buffer solution, 1 mM EDTA, 5 mM MgCl2, 1 mM PMSF, 0.1% NaN3, 3 μg/ml proteinase inhibitor, pH 7.4). The filter was dried and placed in a scintillation vial with 1 ml of scintillation fluid. The radio-activity was measured by a scintillation counter.

CCN(Cc1ccccc1)C(=O)Cc1c(-c2ccc(Cl)cc2)nc2cc(C)ccn12 [Compound 1, N-benzyl-N-ethyl-2-(4-chlorophenyl)-7-methylimidazo[1,2-a]pyridine-3-acetamide]
Inhibition rate (%) ([1]; 1 × 10^−5M): 100%
Inhibition rate (%) ([1]; 1 × 10^−7M): 87%
Inhibition rate (%) ([1]; 1 × 10^−9M): 12%
melting point: 192 to 193 °C

CCN(Cc1ccccn1)C(=O)Cc1c(-c2ccc(Cl)cc2)nc2cc(C)ccn12.Cl [Compound 2, N-ethyl-N-(2-pyridinylmethyl)-2-(4-chlorophenyl)-7-methylimidazo[1,2-a]pyridine-3-acetamide.hydrochloride]
Inhibition rate (%) ([1]; 1 × 10^−5M): 100%
Inhibition rate (%) ([1]; 1 × 10^−7M): 59%
Inhibition rate (%) ([1]; 1 × 10^−9M): 0%
melting point: 178 to 180 °C

CCN(Cc1cccnc1)C(=O)Cc1c(-c2ccc(Cl)cc2)nc2cc(C)ccn12.Cl [Compound 3, N-ethyl-N-(3-pyridinylmethyl)-2-(4-chlorophenyl)-7-methylimidazo[1,2-a]pyridine-3-acetamide.hydrochloride]
Inhibition rate (%) ([1]; 1 × 10^−5M): 100%
Inhibition rate (%) ([1]; 1 × 10^−7M): 25%
Inhibition rate (%) ([1]; 1 × 10^−9M): 0%
melting point: 236 to 238 °C

CCN(Cc1ccncc1)C(=O)Cc1c(-c2ccc(Cl)cc2)nc2cc(C)ccn12.Cl [Compound 4, N-ethyl-N-(4-pyridinylmethyl)-2-(4-chlorophenyl)-7-methylimidazo[1,2-a]pyridine-3-acetamide.hydrochloride]
Inhibition rate (%) ([1]; 1 × 10^−5M): 100%
Inhibition rate (%) ([1]; 1 × 10^−7M): 50%
Inhibition rate (%) ([1]; 1 × 10^−9M): 0%
melting point: 245 to 247 °C

COCCN(Cc1ccccn1)C(=O)Cc1c(-c2ccc(Cl)cc2)nc2cc(C)ccn12.Cl [Compound 5, N-(2-methoxyethyl)-N-(2-pyridinylmethyl)-2-(4-chlorophenyl)-7-methylimidazo[1,2-a]pyridine-3-acetamide.hydrochloride]
Inhibition rate (%) ([1]; 1 × 10^−5M): 100%
Inhibition rate (%) ([1]; 1 × 10^−7M): 43%
Inhibition rate (%) ([1]; 1 × 10^−9M): 0%
melting point: 238 to 239 °C

COCCN(Cc1cccnc1)C(=O)Cc1c(-c2ccc(Cl)cc2)nc2cc(C)ccn12.Cl [Compound 6, N-(2-methoxyethyl)-N-(3-pyridinylmethyl)-2-(4-chlorophenyl)-7-methylimidazo[1,2-a]pyridine-3-acetamide.hydrochloride]
Inhibition rate (%) ([1]; 1 × 10^−5M): 70%
Inhibition rate (%) ([1]; 1 × 10^−7M): 0%
Inhibition rate (%) ([1]; 1 × 10^−9M): 0%
melting point: 234 to 235 °C

CCN(Cc1ccccc1)C(=O)Cc1c(-c2ccc(Cl)c(Cl)c2)nc2cc(C)ccn12 [Compound 7, N-benzyl-N-ethyl-2-(3,4-dichlorophenyl)-7-methylimidazo[1,2-a]pyridine-3-acetamide]
Inhibition rate (%) ([1]; 1 × 10^−5M): 99%
Inhibition rate (%) ([1]; 1 × 10^−7M): 72%
Inhibition rate (%) ([1]; 1 × 10^−9M): 10%
IC50 [1]: 116 nM
Ki [1]: 49.2 nM
melting point: 180 to 182 °C

CCN(Cc1cccnc1)C(=O)Cc1c(-c2ccc(Cl)c(Cl)c2)nc2cc(C)ccn12.Cl [Compound 9, N-ethyl-N-(3-pyridinylmethyl)-2-(3,4-dichlorophenyl)-7-methylimidazo[1,2-a]pyridine-3-acetamide.hydrochloride]
Inhibition rate (%) ([1]; 1 × 10^−5M): 86%
Inhibition rate (%) ([1]; 1 × 10^−7M): 8%
Inhibition rate (%) ([1]; 1 × 10^−9M): 0%
melting point: 245 to 248 °C

COCCN(Cc1cccnc1)C(=O)Cc1c(-c2ccc(Cl)c(Cl)c2)nc2cc(C)ccn12.Cl [Compound 12, N-(2-methoxyethyl)-N-(3-pyridinylmethyl)-2-(3,4-dichlorophenyl)-7-methylimidazo[1,2-a]pyridine-3-acetamide.hydrochloride]
Inhibition rate (%) ([1]; 1 × 10^−5M): 80%
Inhibition rate (%) ([1]; 1 × 10^−7M): 20%
Inhibition rate (%) ([1]; 1 × 10^−9M): 0%
melting point: 235 to 237 °C

CCN(Cc1ccccn1)C(=O)Cc1c(-c2ccc(C)cc2)nc2cc(C)ccn12.Cl [Compound 14, N-ethyl-N-(2-pyridinylmethyl)-2-(4-methylphenyl)-7-methylimidazo[1,2-a]pyridine-3-acetamide.hydrochloride]
Inhibition rate (%) ([1]; 1 × 10^−5M): 97%
Inhibition rate (%) ([1]; 1 × 10^−7M): 66%
Inhibition rate (%) ([1]; 1 × 10^−9M): 14%
IC50 [1]: 91 nM
Ki [1]: 38.7 nM
melting point: 218 to 220 °C

CCN(Cc1cccnc1)C(=O)Cc1c(-c2ccc(C)cc2)nc2cc(C)ccn12.Cl [Compound 15, N-ethyl-N-(3-pyridinylmethyl)-2-(4-methylphenyl)-7-methylimidazo[1,2-a]pyridine-3-acetamide.hydrochloride]
Inhibition rate (%) ([1]; 1 × 10^−5M): 90%
Inhibition rate (%) ([1]; 1 × 10^−7M): 15%
Inhibition rate (%) ([1]; 1 × 10^−9M): 0%
melting point: 251 to 253 °C

CCN(Cc1ccncc1)C(=O)Cc1c(-c2ccc(C)cc2)nc2cc(C)ccn12.Cl [Compound 16, N-ethyl-N-(4-pyridinylmethyl)-2-(4-methylphenyl)-7-methylimidazo[1,2-a]pyridine-3-acetamide.hydrochloride]
Inhibition rate (%) ([1]; 1 × 10^−5M): 72%
Inhibition rate (%) ([1]; 1 × 10^−7M): 41%
Inhibition rate (%) ([1]; 1 × 10^−9M): 0%
melting point: 253 to 255 °C

COCCN(Cc1ccccn1)C(=O)Cc1c(-c2ccc(C)cc2)nc2cc(C)ccn12.Cl [Compound 17, N-(2-methoxyethyl)-N-(2-pyridinylmethyl)-2-(4-methylphenyl)-7-methylimidazo[1,2-a]pyridine-3-acetamide.hydrochloride]
Inhibition rate (%) ([1]; 1 × 10^−5M): 83%
Inhibition rate (%) ([1]; 1 × 10^−7M): 9%
Inhibition rate (%) ([1]; 1 × 10^−9M): 0%
melting point: 239 to 240 °C

COCCN(Cc1cccnc1)C(=O)Cc1c(-c2ccc(C)cc2)nc2cc(C)ccn12.Cl [Compound 18, N-(2-methoxyethyl)-N-(3-pyridinylmethyl)-2-(4-methylphenyl)-7-methylimidazo[1,2-a]pyridine-3-acetamide.hydrochloride]
Inhibition rate (%) ([1]; 1 × 10^−5M): 69%
Inhibition rate (%) ([1]; 1 × 10^−7M): 32%
Inhibition rate (%) ([1]; 1 × 10^−9M): 0%
melting point: 224 to 226 °C

CCN(Cc1ccccc1)C(=O)Cc1c(-c2ccc(OC)cc2)nc2cc(C)ccn12 [Compound 19, N-benzyl-N-ethyl-2-(4-methoxyphenyl)-7-methylimidazo[1,2-a]pyridine-3-acetamide]
Inhibition rate (%) ([1]; 1 × 10^−5M): 94%
Inhibition rate (%) ([1]; 1 × 10^−7M): 76%
Inhibition rate (%) ([1]; 1 × 10^−9M): 0%
melting point: 175 to 178 °C

CCN(Cc1ccccn1)C(=O)Cc1c(-c2ccc(OC)cc2)nc2cc(C)ccn12.Cl [Compound 20, N-ethyl-N-(2-pyridinylmethyl)-2-(4-methoxyphenyl)-7-methylimidazo[1,2-a]pyridine-3-acetamide.hydrochloride]
Inhibition rate (%) ([1]; 1 × 10^−5M): 61%
Inhibition rate (%) ([1]; 1 × 10^−7M): 63%
Inhibition rate (%) ([1]; 1 × 10^−9M): 0%
melting point: 228 to 230 °C

CCN(Cc1cccnc1)C(=O)Cc1c(-c2ccc(OC)cc2)nc2cc(C)ccn12.Cl [Compound 21, N-ethyl-N-(3-pyridinylmethyl)-2-(4-methoxyphenyl)-7-methylimidazo[1,2-a]pyridine-3-acetamide.hydrochloride]
Inhibition rate (%) ([1]; 1 × 10^−5M): 43%
Inhibition rate (%) ([1]; 1 × 10^−7M): 11%
Inhibition rate (%) ([1]; 1 × 10^−9M): 0%
melting point: 230 to 232 °C

CCN(Cc1ccncc1)C(=O)Cc1c(-c2ccc(OC)cc2)nc2cc(C)ccn12.Cl [Compound 22, N-ethyl-N-(4-pyridinylmethyl)-2-(4-methoxyphenyl)-7-methylimidazo[1,2-a]pyridine-3-acetamide.hydrochloride]
Inhibition rate (%) ([1]; 1 × 10^−5M): 63%
Inhibition rate (%) ([1]; 1 × 10^−7M): 9%
Inhibition rate (%) ([1]; 1 × 10^−9M): 4%
melting point: 239 to 242 °C

COCCN(Cc1ccccn1)C(=O)Cc1c(-c2ccc(OC)cc2)nc2cc(C)ccn12.Cl [Compound 23, N-(2-methoxyethyl)-N-(2-pyridinylmethyl)-2-(4-methoxyphenyl)-7-methylimidazo[1,2-a]pyridine-3-acetamide.hydrochloride]
Inhibition rate (%) ([1]; 1 × 10^−5M): 85%
Inhibition rate (%) ([1]; 1 × 10^−7M): 2%
Inhibition rate (%) ([1]; 1 × 10^−9M): 3%
melting point: 214 to 216 °C (dec.)

COCCN(Cc1cccnc1)C(=O)Cc1c(-c2ccc(OC)cc2)nc2cc(C)ccn12.Cl [Compound 24, N-(2-methoxyethyl)-N-(3-pyridinylmethyl)-2-(4-methoxyphenyl)-7-methylimidazo[1,2-a]pyridine-3-acetamide.hydrochloride]
Inhibition rate (%) ([1]; 1 × 10^−5M): 17%
Inhibition rate (%) ([1]; 1 × 10^−7M): 3%
Inhibition rate (%) ([1]; 1 × 10^−9M): 0%
melting point: 243 to 245 °C

CN1C(=O)CN=C(c2ccc(Cl)cc2)c2cc(Cl)ccc21 [Compound R05-4864, 4′-chlorodiazepam, reference compound]
Inhibition rate (%) ([1]; 1 × 10^−5M): 100%
Inhibition rate (%) ([1]; 1 × 10^−7M): 82%
Inhibition rate (%) ([1]; 1 × 10^−9M): 57%
